US20260345582A1, “PRODRUG FOR ANTI-AGING RELATED DISEASES AND USE METHOD THEREOF” (Beijing SunCell Bio-Medical Co., Ltd., priority 2022, published 2026)

Assays:
[1] = test system: platelets in peripheral blood; experiment: in vivo platelet toxicity test, multiple intraperitoneal injections; design: species or system C57 mice
Method: B. The schematic diagram of the multiple dosing and the subsequent blood routine examinations in mice. The drug was administered on 3 consecutive days per week, followed by a 4-day interval, for 3 weeks continuous administration. The drug was administered by intraperitoneal injection in the afternoon on days 0, 1, 2, 7, 8, 9, 14, 15, and 16, and the blood was collected and tested in the morning on days 1, 3, 5, 8, 10, 12, 15, 17, and 19, respectively.
C. Results of the platelet counts in peripheral blood on days 1, 3, 5, 8, 10, 12, 15, 17, and 19 after multiple intraperitoneal injections of different doses of the given drug. Each dot in the panel represents the count of platelets detected in 1 mouse at that time point (n=4 mice); mpk represents the milligram dose per kilogram of the body weight, A13 represents the parent compound A1331852 administration group, and A13bGa1 represents the prodrug obtained after the β-gal modification of A13. The dashed line in the panel indicates the mean value of platelet counts in mice in the single vehicle administration control group.
In Vivo Platelet Toxicity Test
A single administration of A13 or A13bG was performed. Female 5-6 week old C57 mice were treated with a single intraperitoneal injection. A13 and A13bG were administered in three different dose groups of 2, 5, and 20 mg/kg. Approximately 50 μl of blood was collected from each mouse at different time points into the EDTA tubes (RAM Scientific) by means of inner canthal blood extraction, and analyzed using a haematology analyzer for a blood routine examination and a platelet counting. Multiple administrations of A13 or A13bG were performed. Female 5-6 week old C57 mice were treated with multiple intraperitoneal injections. A13 and A13bG were administered in three different dose groups of 2, 5 and 20 mg/kg, three consecutive days per week, followed by a 4-day withdrawal for 3 weeks. The time points of administration were in the afternoon of days 0, 1, 2, 7, 8, 9, 14, 15, and 16, and the time points of blood collection and testing were in the morning of days 1, 3, 5, 8, 10, 12, 15, 17, and 19, respectively.
For a blood routine examination, 50 μl of fresh blood was collected from each mouse and immediately mixed with EDTA. Blood samples were analyzed by Celltac Alpha MEK-6400 series haematology analyzer (Nihon Kohden, MEK-6400). Data were expressed as the number of different blood cells or platelets per μl of blood. For the serum biochemical analysis, the blood samples were collected, coagulated for 2 hours at room temperature or overnight at 4 °C, and then centrifuged (1000 g, 10 minutes) to obtain serum. A 200 μl of serum was aliquoted and analyzed for alanine aminotransferase (ALT), aspartate aminotransferase (AST), uric acid (UA), and creatinine (CREA) by a chemistry analyzer (Mindray, BS-350E).

[2] = test system: mouse model of Bleomycin-induced pulmonary fibrosis; experiment: Masson staining of lungs (degree of fibrosis), Bleomycin-induced pulmonary fibrosis; format: in vivo, C57 mice; settings: of 6 animals; A13 2 mg/kg, A13bGa1 5 mg/kg
Method: A. Modelling of a mouse model of Bleomycin-induced pulmonary fibrosis, and the schematic diagram of treatment. Mice were modelled with Bleomycin administered via tracheal instillation on day 0, and the treatment with intraperitoneal injection of the drug was started on day 4. The drug was administered for 3 consecutive days per week, followed by a 4-day withdrawal, for 4 weeks.
D. Representative results of HE and Masson staining of the pathological sections of lungs taken from different groups of mice after execution. Normal represents the saline tracheal instillation modelling control group; Vehicle represents the vehicle administration control group; A13bGa1 represents the prodrug treatment group; A13 represents the A1331852 treatment group. Scale bar: 500 μm.
All drugs were mixed in 85% physiological saline, 5% DMSO (Sigma, D8418) and 10% Solutol HS 15 (Sigma, 42966), and administered to mice by intraperitoneal (i.p.) injection. To treat the bleomycin-injured young mice, A13 (2 mg/kg), A13bGa1 (5 mg/kg), or an empty vehicle control was administered three consecutive days per week for four weeks. A1331852 (abbreviated as A13) was purchased from MCE.
Bleomycin-Induced Pulmonary Fibrosis
Bleomycin was purchased from Selleck. As previously reported (Bivas-Benita et al., Eur J Pharm Biopharm 61, 214-218 (2005)), a transtracheal injection of bleomycin (2 mg/kg) was performed to the young male C57 mice (8-10 weeks old) to induce lung fibrosis. Drug treatment was initiated four days after modelling, and the drug was administered three consecutive days per week for four consecutive weeks, after which the mice were executed for material collection.
Masson trichrome stain kit (Solarbio, G1340) was used to detect fibrosis in the lung tissue. The formalin-fixed, and paraffin-embedded lung sections were dewaxed with xylene, and then rehydrated with 100% alcohol, 95% alcohol and distilled water. The sections were then stained according to the manufacturer's instructions. Afterwards, the sections were rapidly dehydrated with 95% alcohol and 100% alcohol, cleaned with xylene and covered with the coverslips. Images were acquired using a bright-field optical microscope (10× eyepiece) (OLYMPUS, BX43), and the degree of fibrosis of the lung tissue was graded according to the intensity of staining (weakly positive, moderately positive, moderately strong positive, and very strong positive).

[3] = plasma metabolic stability, human; format: in vitro ADME; settings: 120 min
Method: Plasma Metabolic Stability
Termination of the reaction was accomplished by the addition of 3× volume of acetonitrile and centrifugation at 16000 g for 20 minutes. The supernatant was taken for a LC-MS/MS analysis. The chromatographic column: Waters XSelect HSS T3; the flow rate: 500 μL/min; the eluent: A, water (0.1% formic acid); B, acetonitrile (0.1% formic acid); the gradient elution: 0-1.5 min, 5% B, 1.5-9 min, 5%-80% B, 9-12 min, 80%-100% B, 12-14 min, 100% B, 14-14.3 min, 100%-5% B, 14.3-15 min, 5% B.

With Cc1c(-c2ccc(N3CCc4cccc(C(=O)Nc5nc6ccccc6s5)c4C3)nc2C(=O)OCc2ccc(O[C@@H]3O[C@H](CO)[C@H](O)[C@H](O)[C@H]3O)c([N+](=O)[O-])c2)cnn1CC12CC3CC(CC(C3)C1)C2 [Compound A13bGa1] the “changes in the number of the peripheral blood platelets” value ([1]; multi-round i.p. regimen, FIG. 4C) was “relatively stable”, the “toxic side effects on the platelets” value ([1]; multi-round i.p. regimen, in contrast to A13, FIG. 4C) was “significantly reduced” and the “degree of fibrosis, Masson staining: Moderately strong positive (+++)” value [2] was 0 number of animals. For the same compound, the “degree of fibrosis, Masson staining: extremely strong positive (++++)” value [2] was 0 number of animals, the “degree of fibrosis, Masson staining: moderately positive (++)” value [2] was 1 number of animals and the “degree of fibrosis, Masson staining: not positive (−)” value [2] was 3 number of animals. For the same compound, the “degree of fibrosis, Masson staining: weakly positive (+)” value [2] was 2 number of animals, the metabolised at 2 h, 10 µM ([3]; 10 μM prodrug, read-out: The peak area after normalisation at minute 120, oxidative dehydrogenation metabolite) was 0.07% and the remaining at 2 h, 10 µM ([3]; 10 μM, read-out: The peak area after normalisation at minute 120, initial drug) was 99.9%.
For Cc1c(-c2ccc(N3CCc4cccc(C(=O)Nc5nc6ccccc6s5)c4C3)nc2C(=O)O)cnn1CC12CC3CC(CC(C3)C1)C2 [Compound A13, 3-[1-(adamantan-1-ylmethyl)-5-methylpyrazol-4-yl]-6-{8-[(1,3-benzothiazol-2-yl)carbamoyl]-3,4-dihydro-1H-isoquinolin-2-yl}pyridine-2-carboxylic acid], the “toxic effects on the platelets at the lowest dose” value ([1]; multiple rounds i.p., 2 mg/kg, 3 consecutive days per week, 3 weeks, FIG. 4C) was “very serious toxic effects on the platelets”, the “destructive effects on the platelets at the three doses tested” value ([1]; multiple rounds i.p., 2, 5, 20 mg/kg, FIG. 4C) was “strong destructive effects on the platelets” and the “number of the peripheral blood platelets during monitoring” value ([1]; multiple rounds i.p., FIG. 4C) was “dramatic fluctuations in the number of the peripheral blood platelets”. The “degree of fibrosis, Masson staining: Moderately strong positive (+++)” value [2] was 1 number of animals, the “degree of fibrosis, Masson staining: extremely strong positive (++++)” value [2] was 2 number of animals and the “degree of fibrosis, Masson staining: moderately positive (++)” value [2] was 1 number of animals. For the same compound, the “degree of fibrosis, Masson staining: not positive (−)” value [2] was 0 number of animals and the “degree of fibrosis, Masson staining: weakly positive (+)” value [2] was 2 number of animals.
